Key:
Assay in all cases: relative viability (nuclei count vs DMSO), 5 days (fraction); higher = more cells survive
CUDC-101 + Pemetrexed = compound: C#Cc1cccc(Nc2ncnc3cc(OC)c(OCCCCCCC(=O)NO)cc23)c1 [CUDC-101] + Nc1nc2[nH]cc(CCc3ccc(C(=O)N[C@@H](CCC(=O)O)C(=O)O)cc3)c2c(=O)[nH]1 [Pemetrexed] (partner 0.2 µM)
Summary of the method: (§1)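 Lung cancer cell lines, seeded in 1536-well plates, were treated the following day by pin tool with a single drug or with five library-drug doses (not always all listed) in √10 steps on top of a fixed anchor-drug dose. Cells were fixed and nuclei stained in one step after 5 days, and nuclei were counted. Relative viability is the nuclei count for treated wells divided by that for vehicle wells, reported as medians of duplicate plates.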

[1] = compound: C1=CC=C2C(=C1)N=C(S2)C(C#N)C3=NC(=NC=C3)NCCC4=CN=CC=C4 + Cc1cc(Nc2cc(N3CCN(C)CC3)nc(Sc3ccc(NC(=O)C4CC4)cc3)n2)n[nH]1 [Tozasertib] (partner 0.1 µM)
Summary of the method: as §1

Vandetanib + Palbociclib = compound: COc1cc2/c(=N/c3ccc(Br)cc3F)nc[nH]c2cc1OCC1CCN(C)CC1 [Vandetanib] + CC(=O)c1c(C)c2cnc(Nc3ccc(N4CCNCC4)cn3)nc2n(C2CCCC2)c1=O [Palbociclib] (partner 0.5 µM)
Summary of the method: as §1

Vandetanib + Pemetrexed = compound: COc1cc2/c(=N/c3ccc(Br)cc3F)nc[nH]c2cc1OCC1CCN(C)CC1 [Vandetanib] + Nc1nc2[nH]cc(CCc3ccc(C(=O)N[C@@H](CCC(=O)O)C(=O)O)cc3)c2c(=O)[nH]1 [Pemetrexed] (partner 0.2 µM)
Summary of the method: as §1

Cell Line	relative viability (CUDC-101 + Pemetrexed; first compound 0.01 µM)	relative viability (CUDC-101 + Pemetrexed; first compound 0.03162 µM)	relative viability (CUDC-101 + Pemetrexed; first compound 0.1 µM)	relative viability (CUDC-101 + Pemetrexed; first compound 0.3162 µM)	relative viability (CUDC-101 + Pemetrexed; first compound 1 µM)	relative viability ([1]; first compound 0.005 µM)	relative viability ([1]; first compound 0.01581 µM)	relative viability ([1]; first compound 0.05 µM)	relative viability ([1]; first compound 0.1581 µM)	relative viability ([1]; first compound 0.5 µM)	relative viability (Vandetanib + Palbociclib; first compound 0.02 µM)	relative viability (Vandetanib + Palbociclib; first compound 0.06325 µM)	relative viability (Vandetanib + Palbociclib; first compound 0.2 µM)	relative viability (Vandetanib + Palbociclib; first compound 0.6325 µM)	relative viability (Vandetanib + Palbociclib; first compound 2 µM)	relative viability (Vandetanib + Pemetrexed; first compound 0.02 µM)	relative viability (Vandetanib + Pemetrexed; first compound 0.06325 µM)	relative viability (Vandetanib + Pemetrexed; first compound 0.2 µM)	relative viability (Vandetanib + Pemetrexed; first compound 0.6325 µM)	relative viability (Vandetanib + Pemetrexed; first compound 2 µM)
201T	0.281	0.387	0.368	0.356	0.29	0.788	0.964	0.941	0.929	0.837	0.35	0.353	0.332	0.314	0.335	0.345	0.34	0.328	0.338	0.306
A-427	0.954	0.971	0.982	0.821	0.763	0.203	0.181	0.222	0.227	0.203	0.508	0.497	0.485	0.531	0.503	0.907	1	1.06	0.986	0.927
ABC-1	–	–	–	–	–	0.202	0.196	0.169	0.152	0.184	0.91	0.541	0.693	0.708	0.643	–	–	–	–	–
BEN	0.812	0.727	0.78	0.703	0.769	0.261	0.49	0.457	0.638	0.435	0.458	0.46	0.443	0.479	0.448	0.725	0.67	0.635	0.714	0.516
CAL-12T	1.45	1.13	1.19	1.14	1.18	0.222	0.336	0.275	0.388	0.197	0.562	0.474	0.482	0.22	0.172	1.14	1.2	1.32	1.18	1.17
COR-L23	0.184	0.196	0.2	0.186	0.175	0.179	0.169	0.175	0.167	0.149	0.345	0.27	0.294	0.318	0.268	0.179	0.197	0.223	0.21	0.187
COR-L 105	1.04	0.967	1.1	1.12	0.931	0.324	0.338	0.315	0.339	0.351	0.388	0.442	0.392	0.38	0.39	1.17	1.13	1.09	1.07	0.843
ChaGo-K-1	0.259	0.246	0.259	0.256	0.256	–	0.209	0.223	0.251	0.255	0.921	0.881	0.19	0.887	0.927	0.257	0.271	0.259	0.255	0.263
EKVX	0.395	0.435	0.442	0.373	0.35	0.481	0.468	0.429	0.498	0.336	0.415	0.396	0.345	0.291	0.176	0.385	0.373	0.459	0.349	0.363
EMC-BAC-2	0.464	0.399	0.46	0.394	0.354	0.268	0.32	0.262	0.278	0.234	0.533	0.499	0.546	0.515	0.502	0.473	0.44	0.448	0.427	0.459
EPLC-272H	0.345	0.316	0.428	0.387	0.235	0.168	0.225	0.253	0.236	0.388	0.329	0.321	0.329	0.282	0.311	0.447	0.299	0.399	0.341	0.287
H3255	0.62	0.543	0.408	0.449	0.304	0.685	0.609	0.702	0.089	0.9	0.316	0.311	0.32	0.298	0.245	0.566	0.482	0.49	0.444	0.357
HARA	0.253	0.237	–	0.243	0.176	0.098	0.0872	0.114	0.0978	0.118	0.261	0.224	0.225	0.293	0.221	0.246	0.239	0.243	0.203	0.213
HCC-15	0.212	0.244	0.226	0.217	0.198	0.343	0.411	0.316	0.315	0.273	0.647	0.713	0.646	0.75	0.721	0.229	0.226	0.235	0.238	0.225
HCC-44	0.629	0.657	0.71	0.645	0.693	0.949	–	0.883	0.927	0.548	0.91	0.914	0.967	0.979	0.961	0.606	0.699	0.684	0.657	0.635
HCC-78	0.876	0.942	0.921	0.912	0.862	0.423	0.503	0.472	0.552	0.261	0.443	0.485	0.479	0.518	0.446	0.88	0.889	0.893	0.873	0.901
HCC-366	0.163	0.157	0.137	0.177	0.201	0.102	0.087	0.075	0.0798	0.0706	0.423	0.41	0.453	0.394	0.351	0.128	0.149	0.155	0.17	0.176

Cell Line	relative viability (CUDC-101 + Pemetrexed; first compound 0.01 µM)	relative viability (CUDC-101 + Pemetrexed; first compound 0.03162 µM)	relative viability (CUDC-101 + Pemetrexed; first compound 0.1 µM)	relative viability (CUDC-101 + Pemetrexed; first compound 0.3162 µM)	relative viability (CUDC-101 + Pemetrexed; first compound 1 µM)	relative viability ([1]; first compound 0.005 µM)	relative viability ([1]; first compound 0.01581 µM)	relative viability ([1]; first compound 0.05 µM)	relative viability ([1]; first compound 0.1581 µM)	relative viability ([1]; first compound 0.5 µM)	relative viability (Vandetanib + Palbociclib; first compound 0.02 µM)	relative viability (Vandetanib + Palbociclib; first compound 0.06325 µM)	relative viability (Vandetanib + Palbociclib; first compound 0.2 µM)	relative viability (Vandetanib + Palbociclib; first compound 0.6325 µM)	relative viability (Vandetanib + Palbociclib; first compound 2 µM)	relative viability (Vandetanib + Pemetrexed; first compound 0.02 µM)	relative viability (Vandetanib + Pemetrexed; first compound 0.06325 µM)	relative viability (Vandetanib + Pemetrexed; first compound 0.2 µM)	relative viability (Vandetanib + Pemetrexed; first compound 0.6325 µM)	relative viability (Vandetanib + Pemetrexed; first compound 2 µM)
HCC-827	0.237	0.241	0.163	0.137	0.138	0.366	0.425	0.424	0.438	0.394	0.479	0.468	0.227	0.263	0.166	0.245	0.241	0.263	0.173	0.171
HOP-62	0.295	0.355	0.346	0.349	0.311	0.291	0.42	0.398	0.366	0.372	0.421	0.437	0.431	0.509	0.412	0.325	0.358	0.438	0.299	0.291
LC-2-ad	0.247	0.271	0.284	0.26	0.284	0.358	0.433	0.405	0.449	0.437	0.466	0.489	0.526	0.441	0.422	0.257	0.278	0.273	0.259	0.264
LCLC-97TM1	0.166	0.172	0.183	0.157	0.135	0.294	0.214	0.273	0.256	0.281	0.188	0.21	0.224	0.209	0.254	0.18	0.184	0.166	0.181	0.181
LCLC-103H	0.472	0.537	0.486	0.456	0.429	0.49	0.492	0.525	0.558	0.478	0.439	0.521	0.388	0.478	0.406	0.497	0.493	0.478	0.48	0.5
LK-2	0.255	0.28	0.245	0.207	0.133	0.171	0.186	0.164	0.174	0.184	0.57	0.811	0.859	0.58	0.66	0.259	0.228	0.284	0.276	0.245
LOU-NH91	0.411	0.414	0.421	0.315	0.341	0.652	0.606	0.599	0.689	0.59	0.564	0.524	0.535	0.543	0.416	0.413	0.381	0.391	0.442	0.431
LU99A	0.205	0.197	0.179	0.18	0.176	0.258	0.247	0.224	0.278	0.214	0.378	0.428	0.337	0.359	0.376	0.172	0.191	0.197	0.21	0.187
LXF-289	0.881	0.888	0.873	0.904	0.805	0.173	0.197	0.184	0.232	0.237	0.588	0.565	0.518	0.575	0.558	0.916	0.949	0.885	0.909	0.889
NCI-H23	0.757	0.744	0.604	0.755	0.514	0.634	0.304	0.35	0.301	0.343	0.416	0.427	0.489	0.54	0.495	0.605	0.655	0.634	0.631	0.666
NCI-H322M	0.636	0.604	0.585	0.569	0.453	0.4	0.382	0.487	0.531	0.48	0.484	0.457	0.494	0.446	0.414	0.579	0.615	0.641	0.604	0.51
NCI-H358	0.181	0.187	0.166	0.161	0.154	0.084	0.0964	0.0992	0.109	0.0865	0.146	0.162	0.119	0.133	0.109	0.173	0.17	0.17	0.165	0.162
NCI-H596	0.466	0.538	0.482	0.644	0.472	0.774	1	0.81	0.917	0.853	–	–	–	–	–	0.476	0.565	0.427	0.52	0.469
NCI-H727	–	–	–	–	–	0.629	0.674	0.51	0.512	0.686	0.622	0.692	0.679	0.578	0.56	–	–	–	–	–
NCI-H1563	0.78	0.758	0.844	0.773	0.512	–	–	–	–	–	–	–	–	–	–	0.75	0.732	0.755	0.678	0.755
NCI-H1623	–	–	–	–	–	0.55	0.398	0.395	0.462	0.351	–	–	–	–	–	–	–	–	–	–
NCI-H1792	0.856	0.787	0.915	0.721	0.581	–	–	–	–	–	0.639	0.626	0.636	0.634	0.501	0.834	0.733	0.733	0.822	0.771
